{"source": "paper PMC10033409", "about": "“Autoregulation of GPCR signalling through the third intracellular loop” (Nature, 2023)", "key": {"β2AR": {"test_system": "β2AR", "conditions": "for competition binding curve vs isoproterenol (Extended Data Figure 3L), Fit: fitted curve; for competition binding curve vs isoproterenol (Extended Data Figure 3L): replicates 1-3 and Average"}, "[1]": {"test_system": "endogenous adrenergic receptors in HEK 293T cells", "assay": "cAMP accumulation, untransfected cells", "type": "cell-based, human", "conditions": "untransfected HEK 293T cells; Isoproterenol 10 µM", "method": "Resuspended cells were added 1:1 with a 2× concentration of ligand (10 µl final) into an opaque 384-well flat bottom plate (Greiner Bio-One). […]. for FSK inhibition assays with β-ARs, 100 µM metoprolol was used. For dose–response curves, a saturating concentration of forskolin (10 µM) was included as a control to measure cAMP stimulation independent of the transfected receptor. For experiments comparing multiple receptors measuring non-cognate or secondary Gs signalling (Fig. 4e, Extended Data Fig. 8i–k), 500 µM 3-isobutyl-1-methylxanthine (IBMX) was used to inhibit phosphodiesterase activity. For all other experiments, no IBMX was used to minimize cAMP accumulation from endogenous receptors (Extended Data Fig. 6a). For experiments in Fig. 2g and Extended Data Fig. 6b,e, plates were incubated at 37 °C for 10 min to stimulate cAMP production. For all other experiments, plates were incubated at room temperature for 10 min. […] Reactions were quenched and processed for the cAMP-Glo Assay (Promega) following the manufacturer’s instructions. Luminescence was measured on a Tecan Spark plate reader (500 ms integration, one measurement per well). […]"}, "[2]": {"test_system": "β2AR–Gs peptide FRET sensor", "assay": "∆FRET assay, β2AR–Gs peptide SPASM FRET sensor", "conditions": "isoproterenol 100 µM"}, "[3]": {"conditions": "Wild-Type + Gs-Peptide, Isoproterenol 1.00E-06 M"}, "[4]": {"conditions": "Wild-Type + Gs-Peptide, Isoproterenol 1.00E-07 M"}, "[5]": {"conditions": "Wild-Type + Gs-Peptide, Isoproterenol 1.00E-08 M"}, "[6]": {"conditions": "Wild-Type + Gs-Peptide, Isoproterenol 1.00E-09 M"}, "[7]": {"conditions": "Wild-Type + Gs-Peptide, Isoproterenol 1.00E-10 M"}, "[8]": {"conditions": "Wild-Type, Isoproterenol 1.00E-04 M"}, "[9]": {"conditions": "Wild-Type, Isoproterenol 1.00E-05 M"}, "[10]": {"conditions": "Wild-Type, Isoproterenol 1.00E-06 M"}, "[11]": {"conditions": "Wild-Type, Isoproterenol 1.00E-07 M"}, "[12]": {"conditions": "Wild-Type, Isoproterenol 1.00E-08 M"}, "[13]": {"conditions": "Wild-Type, Isoproterenol 1.00E-09 M"}, "[14]": {"conditions": "Wild-Type, Isoproterenol 1.00E-10 M"}, "[15]": {"conditions": "Wild-Type, Isoproterenol 5.00E-06 M"}, "[16]": {"conditions": "Wild-Type, Isoproterenol 5.00E-07 M"}}, "note": "Where “and” joins values, the source holds several entries; their conditions need not be identical. Equal values may be shown once. Where a name gives a salt, the structure may show the parent alone. Read-outs that look alike come from different tables or passages of the source.", "data": [{"smiles": "CC(C)NCC(O)c1ccc(O)c(O)c1", "note": "(stereo not drawn) [Isoproterenol, isoproterenol (+)-bitartrate salt]", "values": [{"measurement": "competition binding curve vs isoproterenol (Extended Data Figure 3L), Fit", "setting": "β2AR; [3]", "result": 26.38}, {"measurement": "competition binding curve vs isoproterenol (Extended Data Figure 3L)", "setting": "β2AR; [3]", "result": "26.11 and 25.98 and 23.88 and 28.47"}, {"measurement": "competition binding curve vs isoproterenol (Extended Data Figure 3L), Fit", "setting": "β2AR; [4]", "result": 67.56}, {"measurement": "competition binding curve vs isoproterenol (Extended Data Figure 3L)", "setting": "β2AR; [4]", "result": "67.66 and 67.54 and 65.49 and 69.94"}, {"measurement": "competition binding curve vs isoproterenol (Extended Data Figure 3L), Fit", "setting": "β2AR; [5]", "result": 91.53}, {"measurement": "competition binding curve vs isoproterenol (Extended Data Figure 3L)", "setting": "β2AR; [5]", "result": "91.27 and 90.42 and 91.58 and 91.80"}, {"measurement": "competition binding curve vs isoproterenol (Extended Data Figure 3L), Fit", "setting": "β2AR; [6]", "result": 98.02}, {"measurement": "competition binding curve vs isoproterenol (Extended Data Figure 3L)", "setting": "β2AR; [6]", "result": "99.15 and 99.41 and 97.66 and 100.39"}, {"measurement": "competition binding curve vs isoproterenol (Extended Data Figure 3L), Fit", "setting": "β2AR; [7]", "result": 98.82}, {"measurement": "competition binding curve vs isoproterenol (Extended Data Figure 3L)", "setting": "β2AR; [7]", "result": "99.26 and 100.00 (2×) and 97.78"}, {"measurement": "competition binding curve vs isoproterenol (Extended Data Figure 3L)", "setting": "β2AR; Wild-Type, Isoproterenol 1.00E-03 M", "result": "-0.10 and -0.40 and -0.34 and -0.28"}, {"measurement": "competition binding curve vs isoproterenol (Extended Data Figure 3L), Fit", "setting": "β2AR; [8]", "result": 0.67}, {"measurement": "competition binding curve vs isoproterenol (Extended Data Figure 3L)", "setting": "β2AR; [8]", "result": "0.94 and 0.31 and 1.43 and 0.89"}, {"measurement": "competition binding curve vs isoproterenol (Extended Data Figure 3L), Fit", "setting": "β2AR; [9]", "result": 5.86}, {"measurement": "competition binding curve vs isoproterenol (Extended Data Figure 3L)", "setting": "β2AR; [9]", "result": "6.24 and 5.08 and 7.57 and 6.30"}, {"measurement": "competition binding curve vs isoproterenol (Extended Data Figure 3L), Fit", "setting": "β2AR; [10]", "result": 32.07}, {"measurement": "competition binding curve vs isoproterenol (Extended Data Figure 3L)", "setting": "β2AR; [10]", "result": "32.68 and 27.33 and 35.77 and 31.93"}, {"measurement": "competition binding curve vs isoproterenol (Extended Data Figure 3L), Fit", "setting": "β2AR; [11]", "result": 78.70}, {"measurement": "competition binding curve vs isoproterenol (Extended Data Figure 3L)", "setting": "β2AR; [11]", "result": "79.40 and 70.32 and 85.20 and 78.31"}, {"measurement": "competition binding curve vs isoproterenol (Extended Data Figure 3L), Fit", "setting": "β2AR; [12]", "result": 97.15}, {"measurement": "competition binding curve vs isoproterenol (Extended Data Figure 3L)", "setting": "β2AR; [12]", "result": "99.13 and 95.83 and 100.15 and 98.37"}, {"measurement": "competition binding curve vs isoproterenol (Extended Data Figure 3L), Fit", "setting": "β2AR; [13]", "result": 99.60}, {"measurement": "competition binding curve vs isoproterenol (Extended Data Figure 3L)", "setting": "β2AR; [13]", "result": "96.70 and 99.42 and 102.28 and 99.47"}, {"measurement": "competition binding curve vs isoproterenol (Extended Data Figure 3L), Fit", "setting": "β2AR; [14]", "result": 99.85}, {"measurement": "competition binding curve vs isoproterenol (Extended Data Figure 3L)", "setting": "β2AR; [14]", "result": "100.00 and 99.63 and 97.46 and 99.03"}, {"measurement": "competition binding curve vs isoproterenol (Extended Data Figure 3L), Fit", "setting": "β2AR; [15]", "result": 10.54}, {"measurement": "competition binding curve vs isoproterenol (Extended Data Figure 3L)", "setting": "β2AR; [15]", "result": "11.05 and 8.39 and 11.22 and 10.22"}, {"measurement": "competition binding curve vs isoproterenol (Extended Data Figure 3L), Fit", "setting": "β2AR; [16]", "result": 46.03}, {"measurement": "competition binding curve vs isoproterenol (Extended Data Figure 3L)", "setting": "β2AR; [16]", "result": "47.06 and 40.75 and 51.12 and 46.31"}, {"measurement": "% Cyanopindolol Bmax, Average", "setting": "β2AR; β2AR ∆ICL3 + 30 µM Gq-peptide, isoproterenol 3.00E-06 M", "result": 34.71, "unit": "%"}, {"measurement": "% Cyanopindolol Bmax, Average", "setting": "β2AR; β2AR ∆ICL3 + 30 µM Gq-peptide, isoproterenol 5.00E-06 M", "result": 27.06, "unit": "%"}, {"measurement": "% Cyanopindolol Bmax, Average", "setting": "β2AR; β2AR ∆ICL3 + 30 µM Gq-peptide, isoproterenol 5.00E-07 M", "result": 70.37, "unit": "%"}, {"measurement": "% Cyanopindolol Bmax, Average", "setting": "β2AR; β2AR ∆ICL3, isoproterenol 3.00E-06 M", "result": 30.73, "unit": "%"}, {"measurement": "% Cyanopindolol Bmax, Average", "setting": "β2AR; β2AR ∆ICL3, isoproterenol 5.00E-06 M", "result": 15.67, "unit": "%"}, {"measurement": "% Cyanopindolol Bmax, Average", "setting": "β2AR; β2AR ∆ICL3, isoproterenol 5.00E-07 M", "result": 65.90, "unit": "%"}, {"measurement": "cAMP generated from endogenous receptors", "setting": "[1]", "result": "only detected in the presence of 500 µM IBMX"}, {"measurement": "∆FRET (Isoproterenol - Buffer)", "setting": "[2]; HVQ-AAA β2AR–Gs peptide sensor, single experiments N 1-5", "result": "0.012 and 0.013 and 0.020"}, {"measurement": "∆FRET (Isoproterenol - Buffer)", "setting": "[2]; QDG-AAA β2AR–Gs peptide sensor, single experiments N 1-5", "result": "0.021 and 0.017 and 0.027 and 0.030"}, {"measurement": "∆FRET (Isoproterenol - Buffer)", "setting": "[2]; Wild-Type β2AR–Gs peptide sensor, + 10 µM Gq-peptide, single samples", "result": "0.034 and 0.026 and 0.018"}, {"measurement": "∆FRET (Isoproterenol - Buffer)", "setting": "[2]; Wild-Type β2AR–Gs peptide sensor, single experiments N 1-5", "result": "0.014 and 0.016 and 0.017 and 0.019"}, {"measurement": "∆FRET (Isoproterenol - Buffer)", "setting": "[2]; Wild-Type β2AR–Gs peptide sensor, without Gq-peptide, single samples", "result": "0.013 and 0.016 and 0.010 and 0.017 and 0.012"}, {"measurement": "∆FRET (Isoproterenol - Buffer)", "setting": "[2]; ∆ICL3 β2AR–Gs peptide sensor, without Gq-peptide, single samples", "result": "0.022 and 0.020 and 0.025 and 0.024"}]}]}
